Measured values taken from patent US11903951B2, “Nasal pharmaceutical compositions with a porous excipient” (M et P Pharma AG, priority 2016, dated 2024).

Assays:
[1] = Solubility of testosterone in different oils; format: physicochemical
[2] = Time for complete dissolving of the maximally soluble amount of testosterone in different oils; details: vortex mixer and shaker at 1000 rpm
Description: The adsorption ability of the SYLOID® particles was investigated by mixing SYLOID® 244FP, XDP3050, and XDP6035 with castor oil, linalool, TRANSCUTOL®, and CAPRYOL™. The maximally soluble amount of testosterone (under the conditions tested) was dissolved in 2.5 g of each oil using a vortex mixer and shaker at 1000 rpm.

SMILES: C[C@]12CC[C@H]3[C@@H](CCC4=CC(=O)CC[C@@]43C)[C@@H]1CC[C@@H]2O [testosterone]
- Solubility from oil ([1]; CAPRYOL PGMC): 6.0%
- Solubility from oil ([1]; TRANSCUTOL HP): 6.5%
- Solubility from oil ([1]; linalool): 12.5%
- Time of solubility (complete dissolving) ([2]; 0.10 g testosterone in 2.5 g castor oil): >300 min
- Time of solubility (complete dissolving) ([2]; 0.15 g testosterone in 2.5 g CAPRYOL): ~60 min
- Time of solubility (complete dissolving) ([2]; 0.16 g testosterone in 2.5 g TRANSCUTOL): ~5 min
- Time of solubility (complete dissolving) ([2]; 0.31 g testosterone in 2.5 g linalool): 15 to 20 min
